{"source": "patent US20040059104A1", "about": "“Nucleotide mimics and their prodrugs” (priority 2002, published 2004)", "key": {"[1]": {"test": "Compound toxicity in CEM-SS cells (MTS staining)", "format": "cell-based", "details": "human, read-out: CEM-SS TC50", "method": "ollowing paper: Structure-Activity and Cross-Resistance unodeficiency Virus Type 1-Specific ckheit, Jr. et al., Antimicrobial Agents and s were evaluated in CEM-SS cell cultures V-1RF at an MOI of approximately 0.01. At he soluble tetrazolium-based dye MTS viability and quantify compound toxicity of metabolically active cells to yield a soluble analysis of cell viability and compound\nAt assay termination, the assay plates were stained with the soluble tetrazolium-based dye MTS (CellTiter Reagent Promega) to determine cell viability and quantify compound toxicity. MTS is metabolized by the mitochondrial enzymes of metabolically active cells to yield a soluble formazan product, allowing the rapid quantitative analysis of cell viability and compound cytotoxicity. […] At termination of the assay, 20 μL of MTS reagent was added per well. The microtiter plates were then incubated 4-6 hrs at 37° C. for the HIV cytoprotection assay; the incubation intervals were chosen based on empirically determined times for optimal dye reduction. Adhesive plate sealers were used in place of the lids, the sealed plate was inverted several times to mix the soluble formazan product and the plate was read spectrophotometrically at 490 nm with a Molecular Devices Vmax plate reader."}, "Escherichia coli": {"test_system": "Escherichia coli", "test": "Antimicrobial assay, minimal inhibitory concentration", "format": "cell-based", "details": "Escherichia coli, read-out: E. coli MIC"}}, "note": "Where two headings read alike, the source gives them in different places.", "data": [{"compound": "[BH3-][P+](O)(OCC1OC(n2cc(C)c(=O)[nH]c2=O)CC1N=[N+]=[N-])OP(=O)(O)C(F)(F)P(=O)(O)O", "note": "(single isomer, unassigned) [Compound 27-isomer 1, 3′-Azido-3′-deoxythymidine 5′-α-P-borano-β,γ-(difluoromethylene)triphosphate]", "values": [{"measurement": "CC50", "setting": "[1]", "value": "> 200", "unit": "µM"}, {"measurement": "MIC", "setting": "Escherichia coli; overnight at 37° C., tested 0-200 μg/ml, NA = Not active", "value": 60, "unit": "µg/mL"}, {"measurement": "MIC", "setting": "Escherichia coli; value in brackets beside the μg/ml value", "value": 111, "unit": "µM"}]}]}
